Assay results taken from ChEMBL document CHEMBL5150005, “Discovery of 5-{4-[(7-Ethyl-6-oxo-5,6-dihydro-1,5-naphthyridin-3-yl)methyl]piperazin-1-yl}-N-methylpyridine-2-carboxamide (AZD5305): A PARP1-DNA Trapper with High Selectivity for PARP1 over PARP2 and Other PARPs” (J Med Chem, 2021).
≈ marks a conversion by molar mass, not a printed value. Calls of active or inactive are those of the source. No cut-off for these calls is given here.

What was measured:
[1] = physchem; details: buffer, pH 7.4
[2] = system: DLD-1; assay: Antiproliferative activity against human DLD-1 deficient in BRCA-2 cells measured after 7 days; assay type: functional, cell-based
[3] = in vitro; details: human, liver microsomes
[4] = Aqueous solubility of the compound at pH 7.4; assay type: physicochemical; details: buffer
[5] = molecular target: Poly [ADP-ribose] polymerase 2 (Homo sapiens, UniProt Q9UGN5); assay: Inhibition of human recombinant N-terminal Avi-6His-TEV tagged PARP2 full length expressed in pFastBac expression system incubated for 4 hrs by fluorescence anisotropy binding assay
Sequence of Poly [ADP-ribose] polymerase 2 (Q9UGN5 whole entry): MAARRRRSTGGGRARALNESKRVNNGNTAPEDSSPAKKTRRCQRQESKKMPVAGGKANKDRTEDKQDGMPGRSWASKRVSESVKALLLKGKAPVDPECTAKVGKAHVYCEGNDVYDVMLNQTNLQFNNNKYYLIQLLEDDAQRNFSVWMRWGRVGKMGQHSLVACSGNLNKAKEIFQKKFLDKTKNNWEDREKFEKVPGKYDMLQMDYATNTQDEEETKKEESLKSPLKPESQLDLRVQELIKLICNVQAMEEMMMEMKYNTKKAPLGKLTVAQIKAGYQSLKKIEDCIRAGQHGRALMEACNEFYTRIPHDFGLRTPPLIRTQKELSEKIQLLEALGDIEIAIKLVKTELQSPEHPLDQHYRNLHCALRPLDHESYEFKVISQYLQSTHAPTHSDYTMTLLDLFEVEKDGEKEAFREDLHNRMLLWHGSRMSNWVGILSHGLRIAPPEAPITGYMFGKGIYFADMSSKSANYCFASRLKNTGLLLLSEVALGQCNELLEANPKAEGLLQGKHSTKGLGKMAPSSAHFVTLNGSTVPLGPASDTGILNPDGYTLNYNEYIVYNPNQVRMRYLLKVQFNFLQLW

[6] = molecular target: Voltage-gated inwardly rectifying potassium channel KCNH2 (Homo sapiens, UniProt Q12809); assay: Inhibition of human ERG; assay type: toxicity
Sequence of Voltage-gated inwardly rectifying potassium channel KCNH2 (Q12809 whole entry): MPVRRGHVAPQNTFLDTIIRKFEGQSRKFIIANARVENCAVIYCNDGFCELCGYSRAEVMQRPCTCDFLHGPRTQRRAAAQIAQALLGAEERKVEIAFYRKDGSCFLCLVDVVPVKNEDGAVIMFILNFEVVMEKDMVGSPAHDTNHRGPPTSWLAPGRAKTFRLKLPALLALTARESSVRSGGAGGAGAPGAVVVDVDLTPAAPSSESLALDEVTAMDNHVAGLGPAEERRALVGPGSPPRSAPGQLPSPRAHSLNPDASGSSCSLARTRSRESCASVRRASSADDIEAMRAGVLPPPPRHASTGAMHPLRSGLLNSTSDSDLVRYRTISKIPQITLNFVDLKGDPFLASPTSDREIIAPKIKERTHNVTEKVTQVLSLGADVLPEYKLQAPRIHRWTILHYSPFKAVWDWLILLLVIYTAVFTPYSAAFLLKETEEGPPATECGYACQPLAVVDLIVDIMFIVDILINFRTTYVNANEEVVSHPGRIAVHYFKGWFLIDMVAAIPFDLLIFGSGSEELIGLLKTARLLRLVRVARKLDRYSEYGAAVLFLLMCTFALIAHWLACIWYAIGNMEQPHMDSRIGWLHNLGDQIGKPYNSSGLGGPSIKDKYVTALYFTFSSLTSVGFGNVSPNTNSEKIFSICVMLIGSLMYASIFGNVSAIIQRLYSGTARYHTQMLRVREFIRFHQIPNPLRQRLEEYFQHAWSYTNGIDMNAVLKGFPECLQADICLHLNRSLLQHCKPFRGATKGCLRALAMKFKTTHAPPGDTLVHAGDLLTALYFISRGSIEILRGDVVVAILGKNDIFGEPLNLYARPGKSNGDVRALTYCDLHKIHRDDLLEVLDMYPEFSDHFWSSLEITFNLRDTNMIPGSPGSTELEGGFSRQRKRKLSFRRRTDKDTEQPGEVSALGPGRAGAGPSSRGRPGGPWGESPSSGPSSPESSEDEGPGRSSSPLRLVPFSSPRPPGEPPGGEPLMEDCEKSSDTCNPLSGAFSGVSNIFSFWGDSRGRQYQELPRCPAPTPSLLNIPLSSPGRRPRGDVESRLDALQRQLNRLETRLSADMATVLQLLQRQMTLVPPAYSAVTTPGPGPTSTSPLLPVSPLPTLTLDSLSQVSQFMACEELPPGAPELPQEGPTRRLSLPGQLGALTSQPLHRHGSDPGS

[7] = molecular target: Poly [ADP-ribose] polymerase 1 (Homo sapiens, UniProt P09874)
Sequence of Poly [ADP-ribose] polymerase 1 (P09874 whole entry): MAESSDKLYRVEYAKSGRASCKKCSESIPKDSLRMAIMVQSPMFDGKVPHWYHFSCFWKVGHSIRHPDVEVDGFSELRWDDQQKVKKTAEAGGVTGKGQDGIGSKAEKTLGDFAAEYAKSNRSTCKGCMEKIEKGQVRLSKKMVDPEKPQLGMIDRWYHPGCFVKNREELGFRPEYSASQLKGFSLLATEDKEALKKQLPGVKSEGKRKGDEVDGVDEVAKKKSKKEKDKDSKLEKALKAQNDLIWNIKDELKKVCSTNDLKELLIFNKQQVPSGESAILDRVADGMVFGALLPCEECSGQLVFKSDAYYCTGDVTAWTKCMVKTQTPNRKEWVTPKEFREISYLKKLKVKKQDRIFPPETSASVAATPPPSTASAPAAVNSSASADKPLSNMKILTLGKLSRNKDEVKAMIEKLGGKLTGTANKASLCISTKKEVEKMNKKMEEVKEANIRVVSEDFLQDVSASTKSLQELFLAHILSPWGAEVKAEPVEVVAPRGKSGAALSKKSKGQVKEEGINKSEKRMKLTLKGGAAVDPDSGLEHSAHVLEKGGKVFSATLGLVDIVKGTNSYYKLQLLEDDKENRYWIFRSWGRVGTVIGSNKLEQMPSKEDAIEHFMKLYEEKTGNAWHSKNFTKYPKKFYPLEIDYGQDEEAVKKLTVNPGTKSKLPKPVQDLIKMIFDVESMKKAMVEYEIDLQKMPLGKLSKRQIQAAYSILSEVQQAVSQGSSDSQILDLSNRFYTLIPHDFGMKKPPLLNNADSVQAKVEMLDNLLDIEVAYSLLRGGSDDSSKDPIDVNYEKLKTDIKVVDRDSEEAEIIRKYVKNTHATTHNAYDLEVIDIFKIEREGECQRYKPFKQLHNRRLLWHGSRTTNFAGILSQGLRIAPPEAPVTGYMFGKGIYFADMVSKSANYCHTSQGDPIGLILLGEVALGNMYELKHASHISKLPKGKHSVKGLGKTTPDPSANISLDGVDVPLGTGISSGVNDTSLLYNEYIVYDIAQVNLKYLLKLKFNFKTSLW

[8] = in vitro; details: human, Caco-2, pH 7.4
[9] = Intrinsic clearance in human hepatocytes measured per million of cells; assay type: ADME, cell-based, Hepatocyte; details: read-out: CLH
[10] = molecular target: Poly [ADP-ribose] polymerase tankyrase-1 (Homo sapiens, UniProt O95271)
[11] = molecular target: Protein mono-ADP-ribosyltransferase PARP8 (Homo sapiens, UniProt Q8N3A8); assay: Binding affinity to PARP8 (unknown origin) assessed as apparent dissociation constant; details: read-out: Kd(app)
[12] = molecular target: Poly [ADP-ribose] polymerase tankyrase-2 (Homo sapiens) (UniProt Q9H2K2)
[13] = molecular target: T1, Protein mono-ADP-ribosyltransferase PARP9 (Homo sapiens, UniProt Q8IXQ6); assay: Binding affinity to PARP9 (unknown origin) assessed as apparent dissociation constant; details: read-out: Kd(app)
[14] = molecular target: Protein mono-ADP-ribosyltransferase PARP11 (Homo sapiens, UniProt Q9NR21)
Sequence of Protein mono-ADP-ribosyltransferase PARP11 (Q9NR21 whole entry): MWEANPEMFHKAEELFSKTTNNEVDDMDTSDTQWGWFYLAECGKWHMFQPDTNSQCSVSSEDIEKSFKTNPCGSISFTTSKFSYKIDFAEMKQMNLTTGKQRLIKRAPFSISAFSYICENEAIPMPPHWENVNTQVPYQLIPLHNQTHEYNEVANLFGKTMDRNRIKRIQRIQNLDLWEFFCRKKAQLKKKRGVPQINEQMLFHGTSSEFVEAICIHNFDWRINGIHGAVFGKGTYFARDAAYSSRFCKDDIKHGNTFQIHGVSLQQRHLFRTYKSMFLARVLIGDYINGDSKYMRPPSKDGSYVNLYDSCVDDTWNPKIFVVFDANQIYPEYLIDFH

[15] = molecular target: T1, Protein mono-ADP-ribosyltransferase PARP9
[16] = molecular target: Poly [ADP-ribose] polymerase tankyrase-1 (Homo sapiens) (UniProt O95271); assay: Binding affinity to PARP5a (unknown origin) assessed as apparent dissociation constant
[17] = molecular target: Protein mono-ADP-ribosyltransferase PARP3 (Homo sapiens) (UniProt Q9Y6F1); assay: Binding affinity to PARP3 (unknown origin) assessed as apparent dissociation constant
[18] = molecular target: T2, Protein mono-ADP-ribosyltransferase PARP8 (Homo sapiens) (UniProt Q8N3A8)
T2 sequence (whole entry): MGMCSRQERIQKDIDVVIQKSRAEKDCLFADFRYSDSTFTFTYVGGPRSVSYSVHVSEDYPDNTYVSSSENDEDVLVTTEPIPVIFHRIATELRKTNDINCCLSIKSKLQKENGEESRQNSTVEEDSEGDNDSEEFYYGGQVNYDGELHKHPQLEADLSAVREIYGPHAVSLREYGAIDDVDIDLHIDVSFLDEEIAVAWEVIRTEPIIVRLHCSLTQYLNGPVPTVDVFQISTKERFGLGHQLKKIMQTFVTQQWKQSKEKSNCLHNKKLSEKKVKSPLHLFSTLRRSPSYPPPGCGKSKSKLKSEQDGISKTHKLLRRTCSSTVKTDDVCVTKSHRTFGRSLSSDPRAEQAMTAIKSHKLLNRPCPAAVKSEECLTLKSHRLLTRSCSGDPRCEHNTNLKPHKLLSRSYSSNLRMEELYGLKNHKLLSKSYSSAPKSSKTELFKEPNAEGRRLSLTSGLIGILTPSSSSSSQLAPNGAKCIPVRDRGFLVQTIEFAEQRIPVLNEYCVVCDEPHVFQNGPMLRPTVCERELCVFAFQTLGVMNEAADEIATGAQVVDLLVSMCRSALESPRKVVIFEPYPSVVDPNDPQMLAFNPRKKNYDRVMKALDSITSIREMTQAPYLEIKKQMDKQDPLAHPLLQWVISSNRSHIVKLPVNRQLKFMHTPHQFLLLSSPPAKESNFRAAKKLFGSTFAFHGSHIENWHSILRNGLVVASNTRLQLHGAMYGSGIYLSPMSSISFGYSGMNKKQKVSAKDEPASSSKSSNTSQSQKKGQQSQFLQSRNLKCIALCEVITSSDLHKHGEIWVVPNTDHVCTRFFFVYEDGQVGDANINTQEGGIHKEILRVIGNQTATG

[19] = molecular target: Protein mono-ADP-ribosyltransferase PARP16 (Homo sapiens, UniProt Q8N5Y8); assay: Binding affinity to PARP16 (unknown origin) assessed as apparent dissociation constant; details: read-out: Kd(app)
[20] = molecular target: Protein mono-ADP-ribosyltransferase PARP14 (Homo sapiens) (UniProt Q460N5)
Sequence of Protein mono-ADP-ribosyltransferase PARP14 (Homo sapiens) (Q460N5 whole entry): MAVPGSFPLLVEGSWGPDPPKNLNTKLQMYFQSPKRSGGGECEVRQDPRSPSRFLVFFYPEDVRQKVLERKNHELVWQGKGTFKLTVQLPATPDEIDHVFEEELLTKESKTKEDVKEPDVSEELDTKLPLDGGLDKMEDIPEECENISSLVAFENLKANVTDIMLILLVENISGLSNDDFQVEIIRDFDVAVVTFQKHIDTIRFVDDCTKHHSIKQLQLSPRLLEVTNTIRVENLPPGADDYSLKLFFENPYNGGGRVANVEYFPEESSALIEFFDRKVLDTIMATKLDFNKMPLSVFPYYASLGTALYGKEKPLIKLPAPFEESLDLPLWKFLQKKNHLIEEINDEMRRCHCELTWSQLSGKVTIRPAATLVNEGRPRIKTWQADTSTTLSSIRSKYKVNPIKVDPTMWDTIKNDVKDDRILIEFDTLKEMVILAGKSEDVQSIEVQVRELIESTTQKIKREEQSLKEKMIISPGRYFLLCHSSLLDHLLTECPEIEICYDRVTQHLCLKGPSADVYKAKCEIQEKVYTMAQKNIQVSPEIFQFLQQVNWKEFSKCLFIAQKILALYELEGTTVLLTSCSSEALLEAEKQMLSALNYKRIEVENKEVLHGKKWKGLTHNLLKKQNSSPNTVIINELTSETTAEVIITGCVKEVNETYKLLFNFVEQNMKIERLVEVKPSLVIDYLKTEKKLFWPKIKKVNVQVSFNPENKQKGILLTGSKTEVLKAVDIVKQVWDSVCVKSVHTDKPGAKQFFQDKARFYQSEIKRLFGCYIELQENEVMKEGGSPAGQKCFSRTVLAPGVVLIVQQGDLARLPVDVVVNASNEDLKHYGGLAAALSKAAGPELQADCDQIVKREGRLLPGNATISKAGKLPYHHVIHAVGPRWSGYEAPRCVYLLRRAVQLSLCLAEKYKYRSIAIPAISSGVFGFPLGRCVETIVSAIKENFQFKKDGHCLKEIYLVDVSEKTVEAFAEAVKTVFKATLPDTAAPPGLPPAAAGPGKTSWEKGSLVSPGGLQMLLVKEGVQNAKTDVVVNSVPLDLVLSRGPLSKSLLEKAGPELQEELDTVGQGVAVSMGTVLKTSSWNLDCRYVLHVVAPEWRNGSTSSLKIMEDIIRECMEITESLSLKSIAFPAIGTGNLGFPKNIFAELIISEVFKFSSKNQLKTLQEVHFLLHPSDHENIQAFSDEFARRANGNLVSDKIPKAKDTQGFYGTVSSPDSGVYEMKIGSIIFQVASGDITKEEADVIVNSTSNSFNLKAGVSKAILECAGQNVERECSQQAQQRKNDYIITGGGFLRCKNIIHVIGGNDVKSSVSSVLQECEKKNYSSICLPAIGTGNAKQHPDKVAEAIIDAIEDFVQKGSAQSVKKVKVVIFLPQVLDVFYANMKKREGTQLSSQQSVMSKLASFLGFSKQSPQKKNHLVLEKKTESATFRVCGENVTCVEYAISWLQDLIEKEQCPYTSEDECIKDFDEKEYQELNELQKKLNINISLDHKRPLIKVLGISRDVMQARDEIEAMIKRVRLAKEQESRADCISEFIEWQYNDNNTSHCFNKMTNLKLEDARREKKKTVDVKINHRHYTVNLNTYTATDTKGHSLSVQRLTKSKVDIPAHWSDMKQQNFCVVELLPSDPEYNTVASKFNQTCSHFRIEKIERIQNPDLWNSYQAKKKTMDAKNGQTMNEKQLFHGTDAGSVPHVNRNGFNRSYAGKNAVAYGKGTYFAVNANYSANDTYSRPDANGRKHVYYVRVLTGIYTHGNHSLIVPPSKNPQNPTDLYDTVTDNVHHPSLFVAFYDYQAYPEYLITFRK

[21] = molecular target: Protein mono-ADP-ribosyltransferase PARP12 (Homo sapiens) (UniProt Q9H0J9)
[22] = molecular target: Protein mono-ADP-ribosyltransferase TIPARP (Homo sapiens) (UniProt Q7Z3E1)

| SMILES | logD [1] | IC50 ([2]; Homo sapiens, DLD-1, 168 h) | microsomal CLint [3] | solubility [4] | IC50 [5] | IC50 [6] | IC50 [7] | efflux ratio [8] | also measured |
| --- | --- | --- | --- | --- | --- | --- | --- | --- | --- |
| CCc1cc2ccc(CN3CCN(c4ncc(C)n4C)CC3)cc2[nH]c1=O | 2.7 | 3 nM | 25 µL/min/mg | 224 µM (≈ 81.9 µg/mL) | 4200 nM | 12000 nM |  |  |  |
| CCc1cc2ccc(CN3CCN(c4ccc(C(=O)NC)nn4)CC3)cc2[nH]c1=O | 2.4 | 294 nM | 14 µL/min/mg | 30 µM (≈ 12.2 µg/mL) | 7400 nM | > 40000 nM | 4 nM | 1.5 |  |
| Cc1cnc(N2CCN(CCCc3nc4c(Cl)cccc4c(=O)[nH]3)CC2)n1C | 2.3 | 180 nM | 44 µL/min/mg | 4 µM (≈ 1.6 µg/mL) | 4000 nM | 1500 nM |  |  |  |
| O=c1[nH]c(CCCN2CCN(c3ccc(F)cc3F)CC2)nc2c(Cl)cccc12 | 3.9 |  | 58 µL/min/mg | 6 µM (≈ 2.51 µg/mL) | 22000 nM | 1400 nM |  |  |  |
| CCc1cc2cnc(CN3CCN(c4ccc(C(=O)NC)nc4)CC3)cc2[nH]c1=O | 2 | 2 nM | 6 µL/min/mg | 31 µM (≈ 12.6 µg/mL) |  |  |  |  | hepatocyte CLint [9]: < 1 µL/min/1e6 cells |
| CCc1cc2ccc(CN3CCN(c4cnc(C(=O)NC)nc4)CC3)cc2[nH]c1=O | 1.8 | 2500 nM | < 3 µL/min/mg | 58 µM (≈ 23.6 µg/mL) | 2400 nM | > 40000 nM | 8 nM | 14 |  |
| NC(=O)c1cc(F)cc2c1C(=O)N(C1CCN(C3CCC(F)(F)CC3)CC1)C2 |  | 2000 nM |  |  |  |  |  |  | IC50 [10]: > 100000 nM |
| Cc1cnc(N2CCN(Cc3ccc4c(c3)[nH]c(=O)c3cccnc34)CC2)n1C | 2.5 | 15 nM | 30 µL/min/mg | 15 µM (≈ 5.83 µg/mL) | 9100 nM | 11000 nM | 30 nM | 1.3 |  |
| Cc1cnc(N2CCN(Cc3ccc4c5c(c(=O)[nH]c4c3)COCC5)CC2)n1C | 1.9 |  | 8 µL/min/mg | 158 µM (≈ 62.2 µg/mL) | 6600 nM | > 40000 nM | 38 nM | 10 |  |
| CCc1cc2ccc(CN3CCN(c4cnc(C(=O)NC)cn4)CC3)cc2[nH]c1=O | 2.7 | 4400 nM | 18 µL/min/mg | 2 µM (≈ 0.813 µg/mL) | 5900 nM | > 40000 nM |  |  |  |
| CCc1cc2ccc(CN3CCN(c4ccc(F)cc4F)CC3)cc2[nH]c1=O | 4.2 | 1 nM | 16 µL/min/mg | 0.2 µM (≈ 0.0767 µg/mL) | > 26000 nM | 2300 nM | 8 nM |  |  |
| CCc1cc2ccc(CN3CCN(c4ccc(C(=O)NC)cc4)CC3)cc2[nH]c1=O | 3 | 7 nM | 11 µL/min/mg | < 0.25 µM | 3900 nM | 8300 nM |  |  |  |
| CCc1nc2ccc(CN3CCN(c4ccc(C(=O)NC)nc4)CC3)cc2[nH]c1=O | 2.4 | 4 nM | 7 µL/min/mg | 12 µM (≈ 4.88 µg/mL) | 4900 nM |  |  | 1 | hepatocyte CLint [9]: 1.9 µL/min/1e6 cells |
| CNCc1ccc(-c2[nH]c3cc(F)cc4c3c2CCNC4=O)cc1 [RUCAPARIB] |  | 27 nM |  |  |  |  |  |  | Kd [11]: > 10000 nM; Kd(app) [12]: Active; Kd [13]: 3100 nM; Kd [14]: > 10000 nM |
| NC(=O)c1cccc2cn(-c3ccc([C@@H]4CCCNC4)cc3)nc12 [NIRAPARIB] |  | 149 nM |  |  |  |  |  |  | Kd(app) [15]: Active; Kd(app) [16]: Active; Kd(app) [17]: Active; Kd [14]: > 10000 nM; Kd(app) [18]: Active; Kd [19]: > 10000 nM |
| CCc1cc2ccc(CN3CCN(c4ccc(C(=O)NC)nc4)CC3)cc2[nH]c1=O | 2.8 | 3 nM | 17 µL/min/mg | 9 µM (≈ 3.65 µg/mL) | 1100 nM | 21000 nM | 5 nM | 0.7 |  |
| C[C@]1(c2nc3c(C(N)=O)cccc3[nH]2)CCCN1 [VELIPARIB] |  |  |  |  |  |  |  |  | Kd(app) [15]: Active; IC50 ([2]; dld-1): 750 nM; Kd(app) [20]: Active; Kd(app) [21]: Active; Kd(app) [22]: Active; Kd(app) [18]: Active |
| Cc1cnc(N2CCN(Cc3ccc4c(c3)[nH]c(=O)c3ccccc34)CC2)n1C | 3.3 |  | 26 µL/min/mg | < 12 µM | 600 nM | 3900 nM |  |  |  |
| Cc1cnc(N2CCN(Cc3ccc4c5c(c(=O)[nH]c4c3)CCCN5)CC2)n1C | 2.2 | 52 nM | 15 µL/min/mg | 136 µM (≈ 53.4 µg/mL) | 1100 nM | 30000 nM | 51 nM | 3.6 |  |
| Cc1cnc(N2CCN(Cc3ccc4c(c3)[nH]c(=O)c3ncccc34)CC2)n1C | 1.7 | 121 nM | 9 µL/min/mg | 383 µM (≈ 149 µg/mL) | 28000 nM | > 40000 nM |  |  |  |
| O=c1[nH]c(CCCN2CC=C(c3ccc(F)cc3)CC2)nc2c(Cl)cccc12 | 3.8 | > 23000 nM | 35 µL/min/mg | 56 µM (≈ 22.3 µg/mL) | 20000 nM | 2600 nM | 65 nM |  |  |
| Cc1cnc(N2CCN(Cc3ccc4c5c(c(=O)[nH]c4c3)CCCC5)CC2)n1C | 3.2 |  | 57 µL/min/mg | 46 µM (≈ 18 µg/mL) | 490 nM | 3800 nM |  |  |  |
